Key:
Histone deacetylase = test: Inhibition of HDAC from human HeLa cells; type: cell-based
HeLa = test: Antiproliferative activity against human HeLa cells after 4 hrs by WST-1 assay; type: functional, cell-based
P388 [1] = test: Antitumor activity in mouse P388 cells xenografted B6D2F1 mouse assessed as increase in life span at 100 mg/kg/day, ip administered 3 to 7 days postxenografting; type: functional; settings: route intraperitoneal
P388 [2] = test: Antitumor activity in mouse P388 cells xenografted B6D2F1 mouse assessed as increase in life span at 60 mg/kg/day, ip administered 3 to 7 days postxenografting; type: functional; settings: route intraperitoneal
P388 [3] = test: Antitumor activity in mouse P388 cells xenografted B6D2F1 mouse assessed as increase in life span at 20 mg/kg/day, ip administered 3 to 7 days postxenografting; type: functional; settings: route intraperitoneal
Histone deacetylase 8 = target: T1, Histone deacetylase 8 (Homo sapiens, UniProt Q9BY41); test: Inhibition of human recombinant HDAC8
T1 sequence (Q9BY41 whole entry): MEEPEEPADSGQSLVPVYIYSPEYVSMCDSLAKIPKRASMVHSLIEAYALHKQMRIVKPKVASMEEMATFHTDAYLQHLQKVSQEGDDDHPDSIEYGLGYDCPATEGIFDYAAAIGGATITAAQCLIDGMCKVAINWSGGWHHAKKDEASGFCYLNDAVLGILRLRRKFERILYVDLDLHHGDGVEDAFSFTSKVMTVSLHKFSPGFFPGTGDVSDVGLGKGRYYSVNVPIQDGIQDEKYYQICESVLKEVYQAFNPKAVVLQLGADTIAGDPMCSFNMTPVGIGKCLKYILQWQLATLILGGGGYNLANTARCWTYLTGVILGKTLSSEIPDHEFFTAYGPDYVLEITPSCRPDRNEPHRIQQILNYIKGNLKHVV

Histone deacetylase 1 = Histone deacetylase 1 (Homo sapiens, UniProt Q13547); test: Inhibition of human recombinant HDAC1
Histone deacetylase 4 = Histone deacetylase 4 (Homo sapiens, UniProt P56524); test: Inhibition of human recombinant HDAC4
[4] = target: T2, Protein deacetylase HDAC6 (Homo sapiens, UniProt Q9UBN7); test: Inhibition of human recombinant HDAC6
T2 sequence (Q9UBN7 whole entry): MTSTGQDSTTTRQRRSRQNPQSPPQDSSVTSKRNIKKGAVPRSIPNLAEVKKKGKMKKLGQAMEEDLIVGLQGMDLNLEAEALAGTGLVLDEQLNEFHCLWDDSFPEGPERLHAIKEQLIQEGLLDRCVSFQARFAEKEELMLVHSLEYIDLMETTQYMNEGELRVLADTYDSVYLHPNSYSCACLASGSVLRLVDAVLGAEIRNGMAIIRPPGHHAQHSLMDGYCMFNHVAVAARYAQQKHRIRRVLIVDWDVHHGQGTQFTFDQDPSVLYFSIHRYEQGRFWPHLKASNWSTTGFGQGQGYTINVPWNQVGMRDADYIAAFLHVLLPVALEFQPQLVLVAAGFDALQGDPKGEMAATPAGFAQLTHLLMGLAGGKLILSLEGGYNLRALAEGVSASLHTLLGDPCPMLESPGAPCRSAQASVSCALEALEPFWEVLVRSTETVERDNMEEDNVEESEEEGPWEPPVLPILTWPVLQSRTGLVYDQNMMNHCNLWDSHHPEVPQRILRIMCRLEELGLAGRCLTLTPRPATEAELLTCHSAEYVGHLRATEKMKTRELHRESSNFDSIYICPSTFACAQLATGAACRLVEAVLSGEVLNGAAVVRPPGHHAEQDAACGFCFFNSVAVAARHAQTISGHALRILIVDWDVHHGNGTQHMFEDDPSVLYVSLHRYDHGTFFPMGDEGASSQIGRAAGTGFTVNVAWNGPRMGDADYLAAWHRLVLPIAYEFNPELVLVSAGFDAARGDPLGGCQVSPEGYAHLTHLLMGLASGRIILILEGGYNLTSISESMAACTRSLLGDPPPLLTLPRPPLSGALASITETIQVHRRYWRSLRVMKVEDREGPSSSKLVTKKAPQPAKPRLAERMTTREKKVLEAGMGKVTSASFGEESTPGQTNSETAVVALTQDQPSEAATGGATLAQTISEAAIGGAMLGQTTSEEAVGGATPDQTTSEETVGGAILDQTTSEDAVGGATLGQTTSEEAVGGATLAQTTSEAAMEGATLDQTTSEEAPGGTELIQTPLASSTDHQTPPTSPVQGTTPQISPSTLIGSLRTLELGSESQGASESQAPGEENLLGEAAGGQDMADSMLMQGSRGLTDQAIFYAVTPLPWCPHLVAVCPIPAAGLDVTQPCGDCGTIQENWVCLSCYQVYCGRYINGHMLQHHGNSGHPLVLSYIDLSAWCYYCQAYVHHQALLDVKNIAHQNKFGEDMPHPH

Histone deacetylase 2 = Histone deacetylase 2 (Homo sapiens, UniProt Q92769); test: Inhibition of human recombinant HDAC2
Histone deacetylase 3 = Histone deacetylase 3 (Homo sapiens, UniProt O15379); test: Inhibition of human recombinant HDAC3
Histone deacetylase 9 = Histone deacetylase 9 (Homo sapiens, UniProt Q9UKV0); test: Inhibition of human recombinant HDAC9
[5] = target: Histone deacetylase (Homo sapiens) (UniProt Q13547+O15379+Q9UBN7+Q92769+Q9UQL6+Q8WUI4+Q9BY41+Q96DB2+P56524+Q9UKV0+Q969S8); test: Inhibition of HDAC from human HeLa cells at 500 nM

Chain of Histone deacetylase 4 (P56524 whole entry): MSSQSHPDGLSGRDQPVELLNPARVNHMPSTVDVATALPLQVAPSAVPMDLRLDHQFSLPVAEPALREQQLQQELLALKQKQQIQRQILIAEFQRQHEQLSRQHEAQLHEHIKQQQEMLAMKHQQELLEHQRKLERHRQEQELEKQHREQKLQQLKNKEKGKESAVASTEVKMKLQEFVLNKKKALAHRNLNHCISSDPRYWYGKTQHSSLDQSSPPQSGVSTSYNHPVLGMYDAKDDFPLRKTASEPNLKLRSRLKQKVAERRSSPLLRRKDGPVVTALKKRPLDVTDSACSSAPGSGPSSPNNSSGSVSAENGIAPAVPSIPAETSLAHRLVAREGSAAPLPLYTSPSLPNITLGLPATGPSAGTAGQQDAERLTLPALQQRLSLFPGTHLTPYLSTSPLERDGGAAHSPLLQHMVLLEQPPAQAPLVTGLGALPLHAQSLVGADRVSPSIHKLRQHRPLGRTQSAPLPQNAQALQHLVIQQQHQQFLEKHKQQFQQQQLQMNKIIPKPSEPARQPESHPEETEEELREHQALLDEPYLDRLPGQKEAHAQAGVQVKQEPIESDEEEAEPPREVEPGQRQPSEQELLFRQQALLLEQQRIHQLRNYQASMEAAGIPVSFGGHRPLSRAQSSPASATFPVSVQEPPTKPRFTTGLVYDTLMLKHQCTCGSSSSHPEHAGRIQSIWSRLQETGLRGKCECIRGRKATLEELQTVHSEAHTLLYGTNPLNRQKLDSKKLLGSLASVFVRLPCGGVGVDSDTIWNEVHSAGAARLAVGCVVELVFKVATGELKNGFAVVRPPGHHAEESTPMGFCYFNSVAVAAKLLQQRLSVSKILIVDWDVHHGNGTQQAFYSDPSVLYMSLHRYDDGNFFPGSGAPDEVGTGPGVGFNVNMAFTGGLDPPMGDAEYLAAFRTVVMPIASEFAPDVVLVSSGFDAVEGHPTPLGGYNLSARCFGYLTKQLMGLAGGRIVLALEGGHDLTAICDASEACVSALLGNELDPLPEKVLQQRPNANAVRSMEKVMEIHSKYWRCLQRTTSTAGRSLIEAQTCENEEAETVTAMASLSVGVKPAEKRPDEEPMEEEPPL
Chain of Histone deacetylase 2 (Q92769 whole entry): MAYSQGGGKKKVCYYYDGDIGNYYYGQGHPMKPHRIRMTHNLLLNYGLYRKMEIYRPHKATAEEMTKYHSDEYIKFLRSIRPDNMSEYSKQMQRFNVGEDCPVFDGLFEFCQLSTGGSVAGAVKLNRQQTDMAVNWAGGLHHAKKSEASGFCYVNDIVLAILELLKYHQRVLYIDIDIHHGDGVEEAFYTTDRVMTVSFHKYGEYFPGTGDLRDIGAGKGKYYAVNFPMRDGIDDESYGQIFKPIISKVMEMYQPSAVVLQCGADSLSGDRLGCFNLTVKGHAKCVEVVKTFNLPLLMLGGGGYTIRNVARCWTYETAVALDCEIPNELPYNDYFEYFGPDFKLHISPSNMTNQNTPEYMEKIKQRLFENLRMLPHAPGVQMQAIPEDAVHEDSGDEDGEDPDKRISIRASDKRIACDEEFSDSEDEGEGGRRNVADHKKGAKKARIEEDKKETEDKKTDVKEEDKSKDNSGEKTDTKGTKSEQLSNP
Chain of Histone deacetylase 3 (O15379 whole entry): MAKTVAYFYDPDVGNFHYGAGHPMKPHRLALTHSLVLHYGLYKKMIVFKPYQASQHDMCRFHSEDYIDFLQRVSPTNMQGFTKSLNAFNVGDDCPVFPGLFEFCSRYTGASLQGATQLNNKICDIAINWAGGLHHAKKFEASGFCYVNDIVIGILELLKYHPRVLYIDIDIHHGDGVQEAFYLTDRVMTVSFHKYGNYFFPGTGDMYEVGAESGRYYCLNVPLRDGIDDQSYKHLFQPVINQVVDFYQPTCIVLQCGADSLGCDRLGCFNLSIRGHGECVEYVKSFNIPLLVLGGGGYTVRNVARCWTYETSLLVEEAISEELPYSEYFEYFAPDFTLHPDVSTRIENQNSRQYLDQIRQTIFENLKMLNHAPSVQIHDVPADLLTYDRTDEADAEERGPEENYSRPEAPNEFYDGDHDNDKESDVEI
Chain of Histone deacetylase 9 (Q9UKV0 whole entry): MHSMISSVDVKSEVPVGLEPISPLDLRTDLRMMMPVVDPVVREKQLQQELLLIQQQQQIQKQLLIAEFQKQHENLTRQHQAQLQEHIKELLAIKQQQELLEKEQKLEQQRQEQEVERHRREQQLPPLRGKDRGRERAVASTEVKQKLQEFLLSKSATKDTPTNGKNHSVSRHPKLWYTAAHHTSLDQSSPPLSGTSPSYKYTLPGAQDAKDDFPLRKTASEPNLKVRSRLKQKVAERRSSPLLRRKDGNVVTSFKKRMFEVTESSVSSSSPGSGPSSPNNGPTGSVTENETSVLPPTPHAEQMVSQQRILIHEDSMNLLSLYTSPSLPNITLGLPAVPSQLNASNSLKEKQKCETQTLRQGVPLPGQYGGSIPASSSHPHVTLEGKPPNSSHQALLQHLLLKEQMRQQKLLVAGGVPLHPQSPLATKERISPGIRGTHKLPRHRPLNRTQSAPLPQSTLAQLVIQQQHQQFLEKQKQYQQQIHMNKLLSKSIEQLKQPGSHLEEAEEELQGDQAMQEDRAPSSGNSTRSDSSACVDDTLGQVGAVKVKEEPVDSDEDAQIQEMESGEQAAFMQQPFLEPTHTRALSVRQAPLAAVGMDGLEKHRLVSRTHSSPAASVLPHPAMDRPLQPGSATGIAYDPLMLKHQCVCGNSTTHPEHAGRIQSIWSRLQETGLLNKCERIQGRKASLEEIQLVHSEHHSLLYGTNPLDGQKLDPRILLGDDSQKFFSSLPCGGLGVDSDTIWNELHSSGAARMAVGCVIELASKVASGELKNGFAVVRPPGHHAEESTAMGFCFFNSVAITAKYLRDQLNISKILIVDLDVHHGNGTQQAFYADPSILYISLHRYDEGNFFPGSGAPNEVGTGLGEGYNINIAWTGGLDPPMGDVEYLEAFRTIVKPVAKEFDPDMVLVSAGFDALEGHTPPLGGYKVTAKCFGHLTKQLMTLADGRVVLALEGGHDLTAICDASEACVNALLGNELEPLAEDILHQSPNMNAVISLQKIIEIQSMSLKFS
Chain of Histone deacetylase 1 (Q13547 whole entry): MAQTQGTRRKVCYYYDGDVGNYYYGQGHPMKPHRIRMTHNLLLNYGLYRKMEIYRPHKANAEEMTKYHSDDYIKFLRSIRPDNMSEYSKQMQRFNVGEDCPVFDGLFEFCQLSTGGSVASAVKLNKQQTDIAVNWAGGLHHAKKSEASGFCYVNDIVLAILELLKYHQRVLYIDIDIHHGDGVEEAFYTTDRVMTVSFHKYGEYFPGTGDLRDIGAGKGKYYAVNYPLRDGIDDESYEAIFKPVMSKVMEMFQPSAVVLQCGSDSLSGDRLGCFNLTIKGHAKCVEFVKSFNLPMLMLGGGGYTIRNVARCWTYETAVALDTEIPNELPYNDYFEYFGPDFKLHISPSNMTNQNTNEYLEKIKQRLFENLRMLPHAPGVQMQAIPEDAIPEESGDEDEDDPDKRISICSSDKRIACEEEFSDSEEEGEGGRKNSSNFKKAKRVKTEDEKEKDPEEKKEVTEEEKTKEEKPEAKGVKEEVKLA

Row | SMILES | IC50 (Histone deacetylase) [µM] | IC50 (HeLa; 48 h) [µM] | inhibition [5] [%] | further results
1 | O=C(/C=C/c1ccncc1)NCCCCCC(=O)NO.O=C(O)C(=O)O | 0.101 | 46.4 |  | 
2 | O=C(CCCCCCC(=O)Nc1ccccc1)NO [VORINOSTAT] |  |  |  | Activity (P388 [1]): 14%; Activity (P388 [2]): 0%; Activity (P388 [3]): 11%
3 | O=C(C=C1c2ccccc2-c2ccccc21)NCCCCCC(=O)NO | 0.005 | 1.7 |  | IC50 (Histone deacetylase 8): 0.779 µM; IC50 (Histone deacetylase 1): 0.0016 µM; IC50 (Histone deacetylase 4): 0.0012 µM; IC50 [4]: 0.002 µM; IC50 (Histone deacetylase 2): 0.0008 µM; IC50 (Histone deacetylase 3): 0.0028 µM; Activity (P388 [2]): 78%; Activity (P388 [3]): 11%; IC50 (Histone deacetylase 9): 0.0023 µM
4 | O=C(CCCCCCC(=O)NCc1ccccc1)NO |  | 44.2 | 39 | 
5 | O=C(CCCCCCNC(=O)c1ccc2ccccc2c1)NO |  | 0.4 |  | 
6 | O=C(CCCCCCCNC(=O)c1ccc2ccccc2c1)NO | 0.028 | 3.6 |  | 
7 | CN(C)c1ccc(C(=O)NCCCCCC(=O)NO)cc1 |  | 4.1 |  | 
8 | O=C(/C=C/c1cccc2cccnc12)NCCCCCC(=O)NO | 0.025 | 20.9 |  | 
9 | CC(/C=C/C(=O)NCCCC(=O)NO)=C\c1ccccc1 | 22.85 | 114 |  | 
10 | O=C(/C=C/c1ccccc1)NCCCCCC(=O)NO | 0.032 | 5.5 |  | 
11 | O=C(CCCCNC(=O)c1ccc2ccccc2c1)NO |  | 24.7 | 42 | 
12 | O=C(CCCCCNC(=O)CCCCc1ccccc1)NO |  | 70.8 | 51 | 
13 | O=C(CCCCCNC(=O)Cc1ccc(-c2ccccc2)cc1)NO |  | 35.9 | 51 | 
14 | O=C(C#Cc1ccccc1)NCCCCCC(=O)NO | 0.062 |  |  | IC50 (HeLa; 4 h): 10.6 µM
15 | O=C(CCCCCNC(=O)CC/C=C/c1ccccc1)NO | 0.625 | 20.6 |  | 
16 | O=C(CCCCCNC(=O)C/C=C/c1ccccc1)NO |  | 24 | 53 | 
17 | O=C(CCCCCNC(=O)c1ccc(-c2ccccc2)cc1)NO | 0.038 | 2.6 |  | 
18 | O=C(CCCCCNC(=O)CCc1ccccc1)NO |  | 74.8 | 27 | 
19 | CC(/C=C/c1ccccc1)=C\C(=O)NCCCCCC(=O)NO |  | 4.8 |  | 
20 | O=C(/C=C/c1ccccn1)NCCCCCC(=O)NO.O=C(O)C(=O)O | 0.046 | 9.5 |  | 
21 | O=C(/C=C/c1ccc(Cl)cc1F)NCCCCCC(=O)NO |  | 6.3 |  | Activity (P388 [2]): 22%; Activity (P388 [3]): 0%
22 | O=C(C=C(c1ccccc1)c1ccccc1)NCCCCCC(=O)NO | 0.201 | 8.5 |  | 
23 | O=C(/C=C/c1ccc2cccnc2c1)NCCCCCC(=O)NO |  | 12.3 |  | Activity (P388 [2]): 111%; Activity (P388 [3]): 0%
24 | CN(C)c1ccc(CC(=O)NCCCCCC(=O)NO)cc1 |  | 52.7 | 9 | 
25 | O=C(/C=C/c1cccnc1)NCCCCCC(=O)NO.O=C(O)C(=O)O | 0.141 | 28.4 |  | 
26 | O=C(C=C1c2ccccc2CCc2ccccc21)NCCCCCC(=O)NO | 0.338 | 9.9 |  | 
27 | O=C(CCCCCNC(=O)CCCc1ccccc1)NO |  | 52.7 | 19 | 
28 | O=C(/C=C/C=C/c1ccccc1)NCCCCCC(=O)NO | 0.029 | 5.1 |  | 
29 | O=C(CCCCCCC(=O)NCCc1ccccc1)NO |  | 13.3 | 46 | 
30 | O=C(/C=C/c1ccc2ccccc2c1)NCCCCCC(=O)NO | 0.007 | 18.3 |  | 

— ChEMBL document CHEMBL1137690, “Novel amide derivatives as inhibitors of histone deacetylase: design, synthesis and SAR” (Eur J Med Chem, 2009)
